Reference: paper PMC6829050 (European journal of medicinal chemistry, 2019)

What was measured:
ChTS = target: T1, ChTS (Cryptosporidium parvum, UniProt Q27552); assay type: biochemical; conditions: for change in ChTS potency (in words): compared to compound 2
T1 sequence (Q27552 1-521): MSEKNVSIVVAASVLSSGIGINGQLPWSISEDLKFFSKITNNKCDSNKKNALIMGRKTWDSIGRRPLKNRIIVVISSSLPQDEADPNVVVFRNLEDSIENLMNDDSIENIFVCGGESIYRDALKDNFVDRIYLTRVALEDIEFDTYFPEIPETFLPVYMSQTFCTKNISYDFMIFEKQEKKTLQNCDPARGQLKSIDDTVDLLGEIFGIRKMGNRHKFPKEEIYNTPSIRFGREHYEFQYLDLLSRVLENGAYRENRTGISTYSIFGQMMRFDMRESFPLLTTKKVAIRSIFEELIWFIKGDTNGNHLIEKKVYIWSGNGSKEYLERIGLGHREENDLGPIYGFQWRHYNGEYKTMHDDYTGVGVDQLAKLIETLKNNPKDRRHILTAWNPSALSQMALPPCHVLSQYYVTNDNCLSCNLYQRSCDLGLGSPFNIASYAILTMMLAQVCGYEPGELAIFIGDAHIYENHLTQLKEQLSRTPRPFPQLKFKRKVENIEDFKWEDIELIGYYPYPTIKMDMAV

ChTS over the hTS enzyme = conditions: inhibition activity; cited from earlier work
[1] = ChTS IC50 compared to compound 2

Row | Molecule | loss (decrease) of potency (ChTS; [1]) | also measured
1 | COc1cc(C(=O)O)cc(-c2ccc(Cc3c[nH]c4nc(N)[nH]c(=O)c34)cc2)c1 [Compound 27, 4’-((2-amino-4-oxo-4,7-dihydro-3H-pyrrolo[2,3-d]pyrimidin-5-yl)methyl)-5-methoxy-[1,1’-biphenyl]-3-carboxylic acid] | greater than 25 fold | –
2 | Nc1nc2[nH]cc(Cc3ccc(C(=O)NC4CCCCC4C(=O)O)cc3)c2c(=O)[nH]1 (stereo not shown) [Compound 13, 2-(4-((2-amino-4-oxo-4,7-dihydro-3H-pyrrolo[2,3-d]pyrimidin-5-yl)methyl)benzamido)cyclohexan-1-carboxylic acid] | 3 fold | –
3 | Nc1nc2[nH]cc(Cc3ccc(C(=O)Nc4ccc(C(=O)O)cc4)cc3)c2c(=O)[nH]1 [Compound 4, 4-(4-((2-amino-4-oxo-4,7-dihydro-3H-pyrrolo[2,3-d]pyrimidin-5-yl)methyl)benzamido)benzoic acid] | ~ 5 fold | –
4 | Nc1nc2[nH]cc(Cc3ccc(/C=C/c4ccccc4C(=O)O)cc3)c2c(=O)[nH]1 [Compound 10, (E)-2-(4-((2-amino-4-oxo-4,7-dihydro-3H-pyrrolo[2,3-d]pyrimidin-5-yl)methyl)styryl)benzoic acid] | greater than 5 fold | –
5 | COCc1cccc(C(=O)O)c1NC(=O)c1ccc(Cc2c[nH]c3nc(N)[nH]c(=O)c23)cc1 [Compound 21, 2-(4-((2-amino-4-oxo-4,7-dihydro-3H-pyrrolo[2,3-d]pyrimidin-5-yl)methyl)benzamido)-3-(methoxymethyl)benzoic acid] | greater than 5 fold | –
6 | Nc1nc2[nH]cc(Cc3ccc(C(=O)Nc4cc(Cl)ccc4C(=O)O)cc3)c2c(=O)[nH]1 [Compound 14, 2-(4-((2-amino-4-oxo-4,7-dihydro-3H-pyrrolo[2,3-d]pyrimidin-5-yl)methyl)benzamido)-4-chloro benzoic acid] | – | change in ChTS potency (in words) (ChTS): small loss of potency
7 | COCc1ccc(C(=O)O)c(NC(=O)c2ccc(Cc3c[nH]c4nc(N)[nH]c(=O)c34)cc2)c1 [Compound 19, 2-(4-((2-amino-4-oxo-4,7-dihydro-3H-pyrrolo[2,3-d]pyrimidin-5-yl)methyl)benzamido)-4-(methoxymethyl)benzoic acid] | ~ 3.5 fold | –
8 | Nc1nc2[nH]cc(Cc3ccc(C(=O)Nc4ccccc4CC(=O)O)cc3)c2c(=O)[nH]1 [Compound 5, 2-(2-(4-((2-amino-4-oxo-4,7-dihydro-3H-pyrrolo[2,3-d]pyrimidin-5-yl)methyl)benzamido)phenyl) acetic acid] | – | change in ChTS potency (in words) (ChTS): small increase in potency
9 | COc1ccc(C(=O)O)c(NC(=O)c2ccc(Cc3c[nH]c4nc(N)[nH]c(=O)c34)cc2)c1 [Compound 16, 2-(4-((2-amino-4-oxo-4,7-dihydro-3H-pyrrolo[2,3-d]pyrimidin-5-yl)methyl)benzamido)-4-methoxy benzoic acid] | ~ 2.5 fold | –
10 | CN(C(=O)c1ccc(Cc2c[nH]c3nc(N)[nH]c(=O)c23)cc1)c1ccccc1C(=O)O [Compound 9, 2-(4-((2-amino-4-oxo-4,7-dihydro-3H-pyrrolo[2,3-d]pyrimidin-5-yl)methyl)-N-methylbenzamido) benzoic acid] | ~ 11 fold | –
11 | 2-amino-4-oxo-4,7-dihydro-pyrrolo[2,3-d]pyrimidin-methyl-phenyl-L-glutamic acid [Compound 1] | – | selectivity for the ChTS over the hTS enzyme (ChTS over the hTS enzyme): 6 fold
12 | Nc1nc2[nH]cc(Cc3ccc(C(=O)Nc4ccccc4CCC(=O)O)cc3)c2c(=O)[nH]1 [Compound 6, 3-(2-(4-((2-amino-4-oxo-4,7-dihydro-3H-pyrrolo[2,3-d]pyrimidin-5-yl)methyl)benzamido)phenyl) propanoic acid] | ~ 6 fold | –
13 | N#Cc1ccc(C(=O)O)c(NC(=O)c2ccc(Cc3c[nH]c4nc(N)[nH]c(=O)c34)cc2)c1 [Compound 17, 2-(4-((2-amino-4-oxo-4,7-dihydro-3H-pyrrolo[2,3-d]pyrimidin-5-yl)methyl)benzamido)-4-cyanobenzoic acid] | – | increase (enhancement) in potency (ChTS; [1]): 2 fold
14 | Nc1nc2[nH]cc(Cc3ccc(C(=O)NCc4ccccc4C(=O)O)cc3)c2c(=O)[nH]1 [Compound 11, 2-((4-((2-amino-4-oxo-4,7-dihydro-3H-pyrrolo[2,3-d]pyrimidin-5-yl)methyl)benzamido)methyl) benzoic acid] | 6 fold | –
15 | Nc1nc2[nH]cc(Cc3ccc(C(=O)Nc4cccc(C(=O)O)c4)cc3)c2c(=O)[nH]1 [Compound 3, 3-(4-((2-amino-4-oxo-4,7-dihydro-3H-pyrrolo[2,3-d]pyrimidin-5-yl)methyl)benzamido)benzoic acid] | ~ 5 fold | –
16 | Nc1nc2[nH]cc(Cc3ccc(C(=O)Nc4cc(CO)ccc4C(=O)O)cc3)c2c(=O)[nH]1 [Compound 18, 2-(4-((2-amino-4-oxo-4,7-dihydro-3H-pyrrolo[2,3-d]pyrimidin-5-yl)methyl)benzamido)-4-(hydroxymethyl)benzoic acid] | ~ 9 fold | –
17 | COCCOc1cc(OC)cc(-c2ccc(Cc3c[nH]c4nc(N)[nH]c(=O)c34)cc2)c1 [Compound 26, 2-amino-5-((3’-methoxy-5’-(2-methoxyethoxy)-[1,1’-biphenyl]-4-yl)methyl)-3,7-dihydro-4H-pyrrolo [2,3-d]pyrimidin-4-one] | ~ 5 fold | –
18 | COc1ccc(NC(=O)c2ccc(Cc3c[nH]c4nc(N)[nH]c(=O)c34)cc2)c(C(=O)O)c1 [Compound 22, 2-(4-((2-amino-4-oxo-4,7-dihydro-3H-pyrrolo[2,3-d]pyrimidin-5-yl)methyl)benzamido)-5-methoxybenzoic acid] | greater than 5 fold | –
19 | Nc1nc2[nH]cc(Cc3ccc(C(=O)N4CCCCC4C(=O)O)cc3)c2c(=O)[nH]1 (stereo not shown) [Compound 12, 1-(4-((2-amino-4-oxo-4,7-dihydro-3H-pyrrolo[2,3-d]pyrimidin-5-yl)methyl)benzoyl) piperidine-2-carboxylic acid] | greater than 25 fold | –
